Twelve molecules from patent US10004701B2, “Methods and compositions for treating infection” (UNIVERSITY OF ROCHESTER, priority 2012, dated 2018) can be followed below.

≈ marks a conversion by molar mass, not a printed value. Like-named read-outs stand apart in the source and are kept apart here.

The test system of experiment [1] is Enterococcus faecium 824-05. Nature of the experiment: MIC testing. In kind it is cell-based. To be noted: 82405.
Experiment [2] has as its system Pseudomonas aeruginosa PA01. Nature of the experiment: MIC testing. In kind it is cell-based.
Experiment [3] relates to E. faecium. Put plainly: AK assay 384-well format, Prestwick library screening. In kind it is cell-based, Enterococcus faecium. The conditions noted are these: for fold induction at 50 µM: Enterococcus faecium, 3 h, 50 μM final drug concentration, cutoff for positive-scoring molecules 3-fold increase, read-out: AK-based Prestwick Library Screening Results, E. faecium (increase in extracellular AK activity).

In experiment [4] the test system is S. aureus strain USA300-0114. The description is as above. In kind it is cell-based, Staphylococcus aureus. The conditions noted are these: Staphylococcus aureus, USA300, 3 h, 50 μM final drug concentration, cutoff for positive-scoring molecules 3-fold increase, read-out: AK-based Prestwick Library Screening Results, S. aureus (increase in extracellular AK activity).

For experiment [5], the system named is K. pneumoniae. Described as above. In kind it is cell-based, Klebsiella pneumoniae. To be noted: Klebsiella pneumoniae, 3 h, 50 μM final drug concentration, cutoff for positive-scoring molecules 3-fold increase, read-out: AK-based Prestwick Library Screening Results, K. pneumoniae (increase in extracellular AK activity).
For experiment [6], the system named is A. baumannii strain 98-37-09. Described as above. In kind it is cell-based, Acinetobacter baumannii. The conditions noted are these: Acinetobacter baumannii, 983709, 3 h, 50 μM final drug concentration, cutoff for positive-scoring molecules 3-fold increase, read-out: AK-based Prestwick Library Screening Results, A. baumannii (increase in extracellular AK activity).

The test system of experiment [7] is P. aeruginosa. Described as above. In kind it is cell-based, Pseudomonas aeruginosa. To be noted: for fold induction at 50 µM: Pseudomonas aeruginosa, 3 h, 50 μM final drug concentration, cutoff for positive-scoring molecules 3-fold increase, read-out: AK-based Prestwick Library Screening Results, P. aeruginosa (increase in extracellular AK activity).
Experiment [8] has as its system E. cloacae. The experiment is described as above. In kind it is cell-based, Enterobacter cloacae. The conditions noted are these: Enterobacter cloacae, 3 h, 50 μM final drug concentration, cutoff for positive-scoring molecules 3-fold increase, read-out: AK-based Prestwick Library Screening Results, E. cloacae (increase in extracellular AK activity).
The test system of experiment [9] is E. coli. The experiment is described as above. To be noted: Escherichia coli, 3 h, 50 μM final drug concentration, cutoff for positive-scoring molecules 3-fold increase, read-out: AK-based Prestwick Library Screening Results, E. coli (increase in extracellular AK activity). In kind it is cell-based, Escherichia coli.
Experiment [10] has as its system Staphylococcus aureus. Put plainly: MIC testing. In kind it is cell-based.
The test system of experiment [11] is Klebsiella pneumoniae cKP1. Put plainly: MIC testing. In kind it is cell-based.
The test system of experiment [12] is Acinetobacter baumannii 98-37-09. Nature of the experiment: MIC testing. In kind it is cell-based. To be noted: 983709; Acinetobacter baumannii 98-37-09; read-out: MIC.
For experiment [13], the system named is Enterobacter cloacae PMD1001. Nature of the experiment: MIC testing. In kind it is cell-based.
The subject of experiment [14] is Escherichia coli 8295. Nature of the experiment: MIC testing. In kind it is cell-based.
Experiment [15] relates to Klebsiella pneumoniae cKP1. Put plainly: AK assay 96-well format. In kind it is cell-based.
The test system of experiment [16] is Enterobacter cloacae PMD1001. Nature of the experiment: AK assay 96-well format. In kind it is cell-based.
Experiment [17] has as its system Escherichia coli 8295. Put plainly: AK assay 96-well format. In kind it is cell-based.
Experiment [18] deals with S. aureus. Put plainly: Minimum Inhibitory Concentration (MIC) testing, terfenadine study. In kind it is cell-based. The conditions noted are these: Staphylococcus aureus, 16 h.
In experiment [19] the target is T1, S. aureus DNA gyrase (Staphylococcus aureus, UniProt P0A0K8+P20831).
T1 construct: purchased TopoGEN
T1 sequence (P0A0K8 whole entry): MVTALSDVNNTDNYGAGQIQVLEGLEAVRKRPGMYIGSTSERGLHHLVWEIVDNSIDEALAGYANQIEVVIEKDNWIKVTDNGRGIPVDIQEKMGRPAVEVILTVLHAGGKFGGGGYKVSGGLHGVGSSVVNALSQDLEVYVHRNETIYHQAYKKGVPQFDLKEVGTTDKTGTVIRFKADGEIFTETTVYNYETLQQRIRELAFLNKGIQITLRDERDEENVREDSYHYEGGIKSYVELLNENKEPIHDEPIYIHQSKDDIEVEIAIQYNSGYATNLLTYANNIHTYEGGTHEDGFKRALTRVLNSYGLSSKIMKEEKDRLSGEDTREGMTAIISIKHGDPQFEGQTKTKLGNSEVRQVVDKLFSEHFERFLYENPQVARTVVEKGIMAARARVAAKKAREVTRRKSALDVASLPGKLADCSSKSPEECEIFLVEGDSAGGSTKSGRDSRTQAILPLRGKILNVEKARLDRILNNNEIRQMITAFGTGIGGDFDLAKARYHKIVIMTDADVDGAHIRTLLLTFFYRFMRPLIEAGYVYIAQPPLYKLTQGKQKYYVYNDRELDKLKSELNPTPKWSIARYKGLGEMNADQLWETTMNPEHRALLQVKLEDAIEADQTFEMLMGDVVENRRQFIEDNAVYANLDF
T1 sequence (P20831 whole entry): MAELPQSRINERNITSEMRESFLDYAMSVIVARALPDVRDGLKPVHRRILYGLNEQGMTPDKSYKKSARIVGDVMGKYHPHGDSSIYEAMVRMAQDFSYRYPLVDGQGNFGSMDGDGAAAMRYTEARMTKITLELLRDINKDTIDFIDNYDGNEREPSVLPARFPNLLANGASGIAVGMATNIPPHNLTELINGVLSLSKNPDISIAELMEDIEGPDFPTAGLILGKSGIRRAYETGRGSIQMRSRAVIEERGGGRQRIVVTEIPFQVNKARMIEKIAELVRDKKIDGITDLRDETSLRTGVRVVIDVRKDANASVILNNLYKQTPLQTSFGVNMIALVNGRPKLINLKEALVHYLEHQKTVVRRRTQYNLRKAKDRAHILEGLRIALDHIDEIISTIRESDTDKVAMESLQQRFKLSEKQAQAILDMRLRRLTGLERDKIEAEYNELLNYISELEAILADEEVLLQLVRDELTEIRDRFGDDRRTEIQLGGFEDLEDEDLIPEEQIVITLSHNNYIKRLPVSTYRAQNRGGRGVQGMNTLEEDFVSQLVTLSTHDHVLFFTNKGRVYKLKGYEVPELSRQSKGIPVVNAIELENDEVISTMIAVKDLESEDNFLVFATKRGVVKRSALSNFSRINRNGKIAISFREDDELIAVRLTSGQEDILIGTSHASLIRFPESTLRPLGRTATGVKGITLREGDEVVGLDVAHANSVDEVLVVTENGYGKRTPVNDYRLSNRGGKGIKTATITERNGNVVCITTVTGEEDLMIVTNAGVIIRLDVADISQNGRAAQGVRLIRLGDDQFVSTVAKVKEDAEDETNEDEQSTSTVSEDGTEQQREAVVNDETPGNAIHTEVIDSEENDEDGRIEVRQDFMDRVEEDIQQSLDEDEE
Nature of the experiment: S. aureus DNA gyrase supercoiling assay (TopoGEN). In kind it is biochemical. As to the method: Reactions were incubated at 37° C. for 30 min and then stopped by the addition of 10% SDS, filtered through 0.025 μm Millipore membrane filters in a 10 mM Tris-HCl buffer (pH 8), and electrophoresed in a 1% agarose TAE gel. Gels were stained with 0.5 μg/ml ethidium bromide and images were analyzed using densitometry (Image J, NIH).

Experiment [20] deals with Pseudomonas aeruginosa PA01. Nature of the experiment: AK assay 96-well format. In kind it is cell-based.
Where [21] appears, read: Enterococcus faecium 824-05, read-out: MIC.
The mark [22] stands for this setting: Klebsiella pneumoniae cKP1, read-out: MIC.
[23] abbreviates: Staphylococcus aureus USA300-0114, read-out: MIC.

`CCCCCCCCNC(C)C(O)c1ccc(SC(C)C)cc1` (stereo not shown) [Suloctidil, suloctidil, reference compound]: the MIC (in general, the smallest concentration in the dilution series that meets the test's criterion for growth inhibition) in experiment [1] (setting [21]) was 8 µg/mL (≈ 23.7 µM); in experiment [2] it was “did not elicit an antimicrobial response”. Also, the fold induction at 50 µM in [3] (planktonic E. faecium) amounted to 5.4; in experiment [4] (planktonic S. aureus), 2; in experiment [5] (planktonic K. pneumoniae), 2.5; in experiment [6] (planktonic A. baumannii) it was 4.1; in [7] (planktonic P. aeruginosa) it was 6.8; in [8] (planktonic E. cloacae), 0.9. Further, the fold induction at 50 µM in [9] (planktonic E. coli) is 1.9. Further, the “activity in primary and confirmatory AK screens” value in experiment [7] (P. aeruginosa, 50 μM, cutoff 3-fold increase in AK) is “active”.

On to `CCN(CC)CCOc1ccc(C(=C(Cl)c2ccccc2)c2ccccc2)cc1` [Clomiphene, clomiphene, reference compound], for which the MIC in [1] (setting [21]) was found to be 8 µg/mL (≈ 19.7 µM). Also, the “activity in AK Prestwick screen” value in experiment [3] (E. faecium, 50 μM, cutoff 3-fold increase in AK) was “identified”.

Regarding `NC[C@H]1O[C@H](O[C@H]2[C@H](O)[C@@H](O[C@H]3O[C@H](CO)[C@@H](O)[C@H](N)[C@H]3O)[C@H](N)C[C@@H]2N)[C@H](O)[C@@H](O)[C@@H]1O` [Kanamycin, kanamycin], the minimal inhibitory concentration (MIC) in [1] (Enterococcus faecium) is more than 256 µg/mL; in [10] (Staphylococcus aureus), 16 µg/mL (≈ 33 µM); in [10] (Staphylococcus aureus, USA300) it was more than 256 µg/mL; in experiment [11] (setting [22]), 2 µg/mL (≈ 4.13 µM); in [12], 2 µg/mL (≈ 4.13 µM); in [2] (read-out: MIC), 256 µg/mL (≈ 528 µM). Moreover, the MIC is 2 µg/mL (≈ 4.13 µM) in [13] (read-out: MIC) and 32 µg/mL (≈ 66 µM) in experiment [14] (read-out: MIC). For the same molecule, the “Fold increase in AK signal” value was found to be 1 fold in experiment [15] (treatment 0.5×MIC); 1 fold in experiment [15] (treatment 1.0×MIC); 1 fold in [16] (treatment 0.5×MIC); 1 fold in [16] (treatment 1.0×MIC); 55 fold in experiment [17] (treatment 0.5×MIC); 70 fold in experiment [17] (treatment 1.0×MIC).

For the molecule `CC1(C)S[C@@H]2[C@H](NC(=O)[C@H](N)c3ccccc3)C(=O)N2[C@H]1C(=O)O` [Ampicillin, ampicillin], the MIC in experiment [1] (Enterococcus faecium) was more than 256 µg/mL; in experiment [10] (Staphylococcus aureus) it was 2 µg/mL (≈ 5.72 µM); in experiment [10] (Staphylococcus aureus, USA300), more than 256 µg/mL; in [11] (Klebsiella pneumoniae, CKP1), more than 256 µg/mL; in experiment [12], 256 µg/mL (≈ 733 µM); in [2], more than 256 µg/mL. For the same molecule, the MIC was more than 256 µg/mL in [13] and 128 µg/mL (≈ 366 µM) in experiment [14]. The results for the “Fold increase in AK signal” value in [17] (treatment 0.5×MIC) and in experiment [17] (treatment 1.0×MIC) were 50 fold and 74 fold, respectively.

In experiment [18], `O=C(O)c1ccc(C(O)CCCN2CCC(C(O)(c3ccccc3)c3ccccc3)CC2)cc1` (stereo not shown) [Compound 19, 4-(1-hydroxy-4-(4-(hydroxydiphenylmethyl)piperidin-1-yl)butyl)benzoic acid] gave a minimum inhibitory concentration (MIC) of more than 256 µg/mL. In addition, the IC50 (commonly the concentration that inhibits the measured activity by half) in experiment [19] was more than 1090 µM.

In experiment [18], `CC(C)(C)c1ccc(CCCCN2CCC(C(O)(c3ccccc3)c3ccccc3)CC2)cc1` [Compound 10, (1-(4-(4-(tert-butyl)phenyl)butyl)piperidin-4-yl)diphenylmethanol] displayed a minimal inhibitory concentration (MIC) of 8 µg/mL (≈ 17.6 µM). The same molecule had an IC50 in experiment [19] of 205 µM.

In turn, `CN(C)c1ccc(CCN2CCC(C(O)(c3ccccc3)c3ccccc3)CC2)cc1` [Compound 36, (1-(4-(Dimethylamino)phenethyl)piperidin-4-yl)diphenylmethanol] displayed an MIC in [18] of 256 µg/mL (≈ 617 µM). For the same molecule, the half-maximal inhibitory concentration (IC50) in experiment [19] is more than 803 µM.

Take `Cc1cc(NS(=O)(=O)c2ccc(N)cc2)no1` [Sulfamethoxazole, sulfamethoxazole]: the minimum inhibitory concentration (MIC) is more than 256 µg/mL in experiment [1] (setting [21]); 2 µg/mL (≈ 7.9 µM) in experiment [10] (Staphylococcus aureus); more than 256 µg/mL in experiment [10] (setting [23]); more than 256 µg/mL in [11] (setting [22]); 8 µg/mL (≈ 31.6 µM) in [12]; 256 µg/mL (≈ 1010 µM) in [2] (read-out: MIC). Further, the MIC in experiment [13] (read-out: MIC) and in experiment [14] (read-out: MIC) was more than 256 µg/mL each time. Also, the fold induction at 50 µM stood at 1 in experiment [3] (384-well format); 0.7 in experiment [4] (384-well format); 0.6 in [5] (384-well format); 1.3 in experiment [6] (384-well format); 0.7 in experiment [7] (384-well format); 0.7 in experiment [8] (384-well format). In addition, the fold induction at 50 µM in experiment [9] (384-well format) came to 0.7.

Regarding `CO/N=C(\C(=O)N[C@@H]1C(=O)N2C(C(=O)O)=C(CSc3nc(=O)c(=O)[nH]n3C)CS[C@H]12)c1csc(N)n1` [Ceftriaxone, ceftriaxone], the MIC was more than 256 µg/mL in experiment [1] (setting [21]); 2 µg/mL (≈ 3.61 µM) in experiment [10] (Staphylococcus aureus); more than 256 µg/mL in experiment [10] (setting [23]); 2 µg/mL (≈ 3.61 µM) in [11] (setting [22]); 8 µg/mL (≈ 14.4 µM) in experiment [12]; 4 µg/mL (≈ 7.21 µM) in [2] (read-out: MIC). Besides, the MIC in [13] (read-out: MIC) and in experiment [14] (read-out: MIC) was 2 µg/mL (≈ 3.61 µM) each time. In addition, the “Fold increase in AK signal” value in experiment [15] (treatment 0.5×MIC) was found to be 50 fold; in experiment [15] (treatment 1.0×MIC) it was 55 fold; in [20] (treatment 0.5×MIC), 2 fold; in experiment [20] (treatment 1.0×MIC) it was 14 fold; in experiment [16] (treatment 0.5×MIC), 20 fold; in experiment [16] (treatment 1.0×MIC), 17 fold. The “Fold increase in AK signal” value in experiment [17] (treatment 0.5×MIC) turned out to be 51 fold; in [17] (treatment 1.0×MIC), 76 fold.

Regarding `OC(c1ccccc1)(c1ccccc1)C1CCN(CCc2ccc(-c3ccccc3)cc2)CC1` [Compound 32, (1-(2-([1,1′-biphenyl]-4-yl)ethyl)piperidin-4-yl)diphenylmethanol], the minimal inhibitory concentration (MIC) in experiment [18] (S. aureus, MHB, strain not given, read-out: MIC) came to 8 µg/mL (≈ 17.9 µM). The midpoint of inhibition in [19], the IC50, lay at 179 µM.

As to `COc1ccc(CCN2CCC(C(O)(c3ccccc3)c3ccccc3)CC2)cc1` [Compound 28, (1-(4-methoxyphenethyl)piperidin-4-yl)diphenylmethanol], 256 µg/mL (≈ 638 µM) was the least that counted as inhibitory in experiment [18] (MIC). The half-maximal inhibitory concentration (IC50) in experiment [19] is more than 829 µM.

`OC(CCCN1CCC(C(O)(c2ccccc2)c2ccccc2)CC1)c1ccc(Cl)cc1` (stereo not shown) [Compound 4, 1-(4-chlorophenyl)-4-(4-(hydroxydiphenylmethyl)piperidin-1-yl)butan-1-ol] displayed an MIC in experiment [18] of 64 µg/mL (≈ 142 µM). In addition, in experiment [19], the IC50 is 296 µM.
